Data reported in patent US10336707B2, “Heterocyclic derivatives modulating activity of certain protein kinases” (EUDENDRON S.R.L., priority 2014, dated 2019).

Legend:
BaF3 NPM-ALK WT = target: T1, BaF3 NPM-ALK WT (Homo sapiens, UniProt Q9UM73); assay: Tritiated thymidine uptake cell proliferation assay, BaF3 NPM-ALK WT; assay type: cell-based, murine; conditions: cell line BaF3 NPM-ALK WT; read-out: IC50 of cellular proliferation, BaF3 NPM-ALK WT
T1 construct: fused on or other part: P06748 (Nucleophosmin)
T1 sequence (Q9UM73 whole entry, change not shown, the tested form may be a part): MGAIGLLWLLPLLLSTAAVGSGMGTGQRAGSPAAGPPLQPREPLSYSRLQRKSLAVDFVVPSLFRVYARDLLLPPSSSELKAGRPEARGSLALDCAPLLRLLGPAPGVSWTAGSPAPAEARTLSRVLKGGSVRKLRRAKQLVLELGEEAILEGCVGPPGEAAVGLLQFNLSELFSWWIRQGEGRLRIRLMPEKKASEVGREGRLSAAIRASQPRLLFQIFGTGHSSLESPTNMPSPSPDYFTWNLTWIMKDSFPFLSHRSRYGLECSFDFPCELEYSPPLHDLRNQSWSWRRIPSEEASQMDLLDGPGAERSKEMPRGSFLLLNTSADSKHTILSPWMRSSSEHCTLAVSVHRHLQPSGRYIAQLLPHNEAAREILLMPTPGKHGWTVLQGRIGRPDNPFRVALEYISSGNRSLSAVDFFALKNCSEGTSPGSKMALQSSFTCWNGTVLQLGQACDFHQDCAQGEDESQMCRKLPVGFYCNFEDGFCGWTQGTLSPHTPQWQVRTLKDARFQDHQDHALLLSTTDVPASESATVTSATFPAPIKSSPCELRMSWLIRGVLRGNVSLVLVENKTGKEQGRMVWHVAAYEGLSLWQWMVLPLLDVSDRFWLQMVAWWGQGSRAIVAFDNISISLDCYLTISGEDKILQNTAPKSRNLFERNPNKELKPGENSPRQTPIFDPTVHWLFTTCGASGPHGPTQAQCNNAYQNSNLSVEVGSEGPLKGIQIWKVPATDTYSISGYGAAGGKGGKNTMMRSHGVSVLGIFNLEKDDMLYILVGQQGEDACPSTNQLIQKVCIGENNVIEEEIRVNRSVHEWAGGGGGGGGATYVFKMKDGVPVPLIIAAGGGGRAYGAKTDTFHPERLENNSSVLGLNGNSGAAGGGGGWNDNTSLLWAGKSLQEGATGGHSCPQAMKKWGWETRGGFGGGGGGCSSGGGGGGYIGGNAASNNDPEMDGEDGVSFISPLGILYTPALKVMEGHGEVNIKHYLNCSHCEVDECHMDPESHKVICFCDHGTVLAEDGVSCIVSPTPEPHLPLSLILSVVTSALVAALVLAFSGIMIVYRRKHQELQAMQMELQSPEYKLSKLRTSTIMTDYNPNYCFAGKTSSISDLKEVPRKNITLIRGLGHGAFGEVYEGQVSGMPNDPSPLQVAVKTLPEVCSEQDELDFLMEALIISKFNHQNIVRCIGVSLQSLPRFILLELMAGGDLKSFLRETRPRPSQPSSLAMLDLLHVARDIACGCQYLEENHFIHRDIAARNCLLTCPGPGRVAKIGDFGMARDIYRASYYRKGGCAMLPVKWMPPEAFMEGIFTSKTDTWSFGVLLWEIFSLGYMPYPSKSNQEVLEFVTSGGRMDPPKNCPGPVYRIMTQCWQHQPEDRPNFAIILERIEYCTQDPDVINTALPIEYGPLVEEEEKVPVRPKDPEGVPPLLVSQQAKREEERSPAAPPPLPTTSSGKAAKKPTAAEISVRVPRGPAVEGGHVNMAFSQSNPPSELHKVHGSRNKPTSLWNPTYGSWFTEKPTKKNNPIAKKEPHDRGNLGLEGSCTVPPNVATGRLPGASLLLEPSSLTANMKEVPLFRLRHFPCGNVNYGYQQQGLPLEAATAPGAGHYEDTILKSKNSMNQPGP
Procedure: (§1) Method: Tritiated Thymidine Uptake Cell Proliferation Assay
(§2) The following procedure was used with parent untransformed BaF3 cells, BaF3 cells transformed with the oncogenic fusion protein NPM/ALK, NPM/ALK positive SUDHL-1 cells, NPM/ALK positive SUPM2, ALK-negative HL60 cells, NPM/ALK positive KARPAS-299 cells. The parent untransformed BaF3 cells or Alk-negative HL60 cells are used as controls. Cells were seeded in U-bottomed 96-well plates at 10000 cells/well in a volume of 100 μl in supplemented medium. In the case of the parent untransformed BaF3 cells, the medium was supplemented with IL-3. Serial dilutions of inhibitors were added to the appropriate wells and volumes adjusted to 200 μl. Controls were treated with the equivalent volume of vehicle, DMSO, alone. Plates were incubated at 37° C. for 72 h. 3[H]-thymidine (1 μCi/well) was added for the last 16 h of incubation. Cells were harvested on to paper filters and 3[H]-thymidine incorporation was measured using a scintillation counter (1430 MicroBeta, Wallac, Turku, Finland). The 50% inhibitory concentration (IC50) was defined as the concentration of inhibitor, expressed in nanomolar units, that gave a 50% decrease in 3[H]-thymidine uptake compared with controls.
(§3) In Table 4 are reported the IC50 of cellular proliferation assays of example 3 versus ALK positive, mutated and negative cell lines.

ALK-negative HL60 cells = assay: Tritiated thymidine uptake cell proliferation assay, HL60 (ALK-negative control); assay type: cell-based; conditions: Homo sapiens, HL-60; cell line HL60, ALK negative control; read-out: IC50 of cellular proliferation, HL60
Procedure: as §1, §2
Potentially toxic effects were assessed using parent untransformed BaF3 cells or ALK negative HL60 cells. […]

BaF3 NPM-ALK L1152R = target: T2, BaF3 NPM-ALK L1152R (Homo sapiens, UniProt Q9UM73, L1152R, cells depend on it); assay: Tritiated thymidine uptake cell proliferation assay, BaF3 NPM-ALK L1152R; assay type: cell-based, murine; conditions: cell line BaF3 NPM-ALK L1152R; read-out: IC50 of cellular proliferation, BaF3 NPM-ALK L1152R
T2 construct: fused on or other part: P06748 (Nucleophosmin)
T2 sequence (Q9UM73 whole entry L1152R, the tested form may be a part): as the sequence (Q9UM73 whole entry, change not shown, the tested form may be a part) above, with L1152R counted along it
Procedure: as §1, §2, §3

RET M918T = target: T3, RET M918T (Homo sapiens, UniProt P07949, M918T); assay: Radiometric protein kinase assay (33PanQuinase Activity Assay), RET M918T; assay type: biochemical; conditions: ATP 0.3 μM
T3 construct: either as full-length or enzymatically active fragments; purchased ProQinase GmbH (Freiburg, Germany)
T3 sequence (P07949 29-1114 M918T): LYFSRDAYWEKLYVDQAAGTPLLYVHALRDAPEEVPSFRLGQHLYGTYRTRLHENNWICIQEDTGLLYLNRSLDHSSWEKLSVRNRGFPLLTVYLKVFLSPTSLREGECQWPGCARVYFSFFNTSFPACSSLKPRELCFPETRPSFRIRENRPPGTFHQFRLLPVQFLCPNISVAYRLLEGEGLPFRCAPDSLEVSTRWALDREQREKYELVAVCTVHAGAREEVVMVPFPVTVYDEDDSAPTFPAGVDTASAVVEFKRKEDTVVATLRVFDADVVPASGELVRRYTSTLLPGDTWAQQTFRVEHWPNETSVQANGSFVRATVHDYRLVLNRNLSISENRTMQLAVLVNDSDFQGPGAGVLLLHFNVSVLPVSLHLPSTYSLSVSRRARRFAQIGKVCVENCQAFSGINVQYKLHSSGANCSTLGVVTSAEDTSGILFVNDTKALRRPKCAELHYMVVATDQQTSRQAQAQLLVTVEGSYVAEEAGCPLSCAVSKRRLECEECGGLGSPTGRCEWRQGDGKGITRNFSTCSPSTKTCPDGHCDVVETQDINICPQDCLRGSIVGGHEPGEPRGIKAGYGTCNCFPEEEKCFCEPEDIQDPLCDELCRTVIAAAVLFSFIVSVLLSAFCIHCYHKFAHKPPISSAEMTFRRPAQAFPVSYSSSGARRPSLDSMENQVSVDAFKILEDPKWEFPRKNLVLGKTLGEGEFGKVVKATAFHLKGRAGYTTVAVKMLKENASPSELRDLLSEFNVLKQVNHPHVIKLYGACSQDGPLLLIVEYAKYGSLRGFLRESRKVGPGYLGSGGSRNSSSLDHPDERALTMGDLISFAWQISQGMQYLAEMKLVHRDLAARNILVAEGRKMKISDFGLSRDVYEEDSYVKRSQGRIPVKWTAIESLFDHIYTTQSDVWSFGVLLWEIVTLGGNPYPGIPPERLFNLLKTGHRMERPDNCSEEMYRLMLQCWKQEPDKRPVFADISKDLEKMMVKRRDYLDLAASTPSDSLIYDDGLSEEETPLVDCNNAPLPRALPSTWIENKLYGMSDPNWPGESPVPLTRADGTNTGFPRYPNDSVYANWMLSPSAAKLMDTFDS
Procedure: (§4) A proprietary radiometric protein kinase assay (33PanQuinase® Activity Assay) developed by ProQuinase GmbH (Freiburg, Germany) was used for measuring the kinase activity of selected protein kinases. All assays were performed in FlashPlates™ wells 96 Perkin Elmer (Boston, Mass., USA) in a reaction volume of 50 μl. The reaction mixture was obtained in 4 steps in the following order: • 1. 10 μl of a solution of non-radioactive ATP in water; • 2. 25 μl of assay buffer/[γ-^33P]-ATP mixture • 3. 5 μl of test sample in 10% DMSO • 4. 10 μl of enzyme/substrate mixture
(§5) All protein kinases provided by ProQinase were expressed in Sf9 insect cells or in E. coli as recombinant GST-fusion proteins or His-tagged proteins, either as full-length or enzymatically active fragments. […] Kinases from external vendors (CAR=Carna Biosciences Inc.; INV=Life Technologies (Invitrogen Corporation); MIL=Merck-Millipore (Millipore Corporation), were expressed, purified and quality-controlled by virtue of the vendors readings.
(§6) A stock solution of compound of formula (I) was diluted to 5×10-04M/100% DMSO. […] Incorporation of 33Pi (counting of “cpm”) was determined with a microplate scintillation counter (Microbeta, Wallac). […]
(§7) Based on each 10 corresponding residual activities, IC50 values were calculated using Prism 5.04 for Windows (Graphpad, San Diego, Calif.). […]

BaF3 NPM-ALK C1156Y = target: T4, BaF3 NPM-ALK C1156Y (Homo sapiens, UniProt Q9UM73, C1156Y, cells depend on it); assay: Tritiated thymidine uptake cell proliferation assay, BaF3 NPM-ALK C1156Y; assay type: cell-based, murine; conditions: cell line BaF3 NPM-ALK C1156Y; read-out: IC50 of cellular proliferation, BaF3 NPM-ALK C1156Y
T4 construct: fused on or other part: P06748 (Nucleophosmin)
T4 sequence (Q9UM73 whole entry C1156Y, the tested form may be a part): as the sequence (Q9UM73 whole entry, change not shown, the tested form may be a part) above, with C1156Y counted along it
Procedure: as §1, §2, §3

FYN = target: T5, FYN (Homo sapiens, UniProt P06241); assay: Radiometric protein kinase assay (33PanQuinase Activity Assay), FYN; assay type: biochemical; conditions: ATP 0.3 μM
T5 construct: either as full-length or enzymatically active fragments; purchased ProQinase GmbH (Freiburg, Germany)
T5 sequence (P06241 whole entry, the tested form may be a part): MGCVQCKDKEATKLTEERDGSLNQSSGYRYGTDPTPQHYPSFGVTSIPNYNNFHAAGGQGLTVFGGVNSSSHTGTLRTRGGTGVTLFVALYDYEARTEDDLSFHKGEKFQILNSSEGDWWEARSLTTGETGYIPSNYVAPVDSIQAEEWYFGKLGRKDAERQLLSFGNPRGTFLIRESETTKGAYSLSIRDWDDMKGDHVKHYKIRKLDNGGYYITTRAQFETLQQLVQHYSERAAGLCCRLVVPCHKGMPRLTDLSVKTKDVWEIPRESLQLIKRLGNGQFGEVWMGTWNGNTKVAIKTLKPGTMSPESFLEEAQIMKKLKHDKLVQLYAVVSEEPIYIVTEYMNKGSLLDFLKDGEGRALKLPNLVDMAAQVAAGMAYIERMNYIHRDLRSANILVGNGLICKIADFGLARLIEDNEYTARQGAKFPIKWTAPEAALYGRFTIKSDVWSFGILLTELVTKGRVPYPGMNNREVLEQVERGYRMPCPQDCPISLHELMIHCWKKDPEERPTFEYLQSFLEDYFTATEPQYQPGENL
Procedure: as §4, §5, §6, §7

[1] = target: T6, ALK wild-type (GST-His-tag) (Homo sapiens, UniProt Q9UM73); assay: Radiometric protein kinase assay (33PanQuinase Activity Assay), ALK wild-type; assay type: biochemical; conditions: ATP 0.3 μM
T6 construct: either as full-length or enzymatically active fragments; purchased ProQinase GmbH (Freiburg, Germany)
T6 sequence (Q9UM73 19-1620): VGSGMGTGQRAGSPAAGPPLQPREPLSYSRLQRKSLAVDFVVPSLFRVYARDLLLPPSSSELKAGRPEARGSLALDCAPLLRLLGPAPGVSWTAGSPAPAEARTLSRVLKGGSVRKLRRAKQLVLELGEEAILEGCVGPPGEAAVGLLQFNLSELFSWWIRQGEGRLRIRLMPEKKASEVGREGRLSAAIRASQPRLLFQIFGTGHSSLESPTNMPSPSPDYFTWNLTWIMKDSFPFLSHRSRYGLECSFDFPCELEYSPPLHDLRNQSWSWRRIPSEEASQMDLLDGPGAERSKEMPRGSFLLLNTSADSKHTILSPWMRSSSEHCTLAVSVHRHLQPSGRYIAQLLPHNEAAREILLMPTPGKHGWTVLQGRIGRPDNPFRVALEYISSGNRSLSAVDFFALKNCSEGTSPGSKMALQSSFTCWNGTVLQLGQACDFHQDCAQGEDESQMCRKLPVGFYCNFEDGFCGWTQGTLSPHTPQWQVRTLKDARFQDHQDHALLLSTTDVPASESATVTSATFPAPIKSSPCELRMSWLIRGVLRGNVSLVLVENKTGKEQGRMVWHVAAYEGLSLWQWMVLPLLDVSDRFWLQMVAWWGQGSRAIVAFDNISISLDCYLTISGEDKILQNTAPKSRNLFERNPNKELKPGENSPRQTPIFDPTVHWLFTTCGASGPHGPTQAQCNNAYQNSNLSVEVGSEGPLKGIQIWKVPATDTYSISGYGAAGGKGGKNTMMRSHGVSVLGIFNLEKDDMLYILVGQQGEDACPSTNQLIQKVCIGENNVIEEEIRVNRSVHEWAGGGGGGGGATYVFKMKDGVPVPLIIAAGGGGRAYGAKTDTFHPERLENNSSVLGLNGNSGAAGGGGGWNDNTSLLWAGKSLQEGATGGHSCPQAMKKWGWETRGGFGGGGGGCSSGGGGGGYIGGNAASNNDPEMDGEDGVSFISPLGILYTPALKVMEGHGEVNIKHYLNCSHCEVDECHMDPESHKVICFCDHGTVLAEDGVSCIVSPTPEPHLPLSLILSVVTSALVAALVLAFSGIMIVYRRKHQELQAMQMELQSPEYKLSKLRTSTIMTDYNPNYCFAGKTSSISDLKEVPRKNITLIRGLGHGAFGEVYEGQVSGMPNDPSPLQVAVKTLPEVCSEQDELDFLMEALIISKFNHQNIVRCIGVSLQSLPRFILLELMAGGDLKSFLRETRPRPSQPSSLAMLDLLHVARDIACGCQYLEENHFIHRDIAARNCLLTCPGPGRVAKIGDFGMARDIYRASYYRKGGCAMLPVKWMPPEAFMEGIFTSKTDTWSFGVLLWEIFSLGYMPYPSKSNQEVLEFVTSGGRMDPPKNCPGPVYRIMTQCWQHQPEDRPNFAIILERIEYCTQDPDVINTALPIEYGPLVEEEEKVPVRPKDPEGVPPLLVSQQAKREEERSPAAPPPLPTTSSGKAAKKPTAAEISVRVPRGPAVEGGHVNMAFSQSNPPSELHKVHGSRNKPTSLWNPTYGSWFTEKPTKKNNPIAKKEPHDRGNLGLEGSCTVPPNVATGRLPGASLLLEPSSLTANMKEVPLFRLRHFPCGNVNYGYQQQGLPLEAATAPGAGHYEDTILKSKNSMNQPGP
Procedure: as §4, §5, §6, §7

NPM/ALK positive SUPM2 = assay: Tritiated thymidine uptake cell proliferation assay, SUPM2; assay type: cell-based; conditions: SUP-M2; cell line SUPM2; read-out: IC50 of cellular proliferation, SUPM2
Procedure: as §1, §2, §3

How did the GI50 (BaF3 NPM-ALK WT) turn out when `CN1CCN(c2ccc(C(=O)Nc3n[nH]c4cc(-c5ccc(O)cc5)c(Cc5cc(F)cc(F)c5)cc34)c(NC3CCOCC3)c2)CC1` [Example 3, N-[5-[(3,5-difluorophenyl)methyl]-6-(4-hydroxyphenyl)-1H-indazol-3-yl]-4-(4-methylpiperazin-1-yl)-2-(tetrahydropyran-4-ylamino)benzamide] was run?
Its GI50 is 18 nM.

What about the IC50 (ALK-negative HL60 cells) of the same molecule?
The IC50 was 17000 nM.

And the GI50 (BaF3 NPM-ALK L1152R)?
The GI50 was 18 nM.

And the IC50 (RET M918T)?
The IC50 was 120 nM.

And the GI50 (BaF3 NPM-ALK C1156Y)?
Its GI50 is 34 nM.

What about the IC50 (FYN) of the same molecule?
The IC50 was 34 nM.

And the IC50 [1]?
Its IC50 is 29 nM.

What about the IC50 (NPM/ALK positive SUPM2) of the same molecule?
The IC50 was 52 nM.
